Source: patent US9572820B2, “Methods of treating autophagy-associated disorders and related pharmaceutical compositions, diagnostics, screening techniques and kits” (priority 2011, dated 2017)

Key:
caspase 1 p20 = experiment: Caspase-1 accumulation in BMM by Western blot; type: cell-based, murine; conditions: Atg5fl/fl LysM-Cre− BMM, EBSS
Description: (A) Confocal microcopy analysis of caspase-1 colocalization relative to LC3 in GFP-LC3 expressing BMM induced for autophagy by starvation (EBSS) in the presence of bafilomycin A1 for 90 minutes. Scale bar, 5 μM; Arrowheads and insets, LC3+ caspase-l+ positive profiles (colocalization). (B) Pearson's colocalization coefficient for caspase-1 vs. LC3 and IL-1α vs. LC3. (C) Caspase-1 accumulation in Atg5^fl/fl LysM-Cre− or Atg5^fl/fl LysM-Cre+ BMM induced for autophagy in EBSS with or without bafilomycin A1 (BafA1) and subjected to Western blot analysis. (D) IL-1α (culture supernatant ELISA) released from Atg5fl/fl LysM-Cre+ and Atg5fl/fl LysM-Cre− BMM incubated overnight with 100 ng/ml LPS and exposed for 1 h to inflammasome agonist silica (250 μg/ml) in EBSS. Data, means±SE, n≧3; **p<0.01 (t test).
Cells were washed with PBS and lysed with RIPA buffer containing protease inhibitor cocktail (Roche). Cells extracts were analyzed by standard immunoblotting techniques with antibodies to ASC (Enzo Life Science, AL177), procaspase-1 and active caspase-1 (P20) (Cell Signaling, 2225), GFP (Abeam), calpain I (Cell Signaling), p62 (Abeam) and actin (Sigma). Proteins were resolved on a 12% SDS-polyacrylamide gels and transferred to nitrocellulose membranes. The membrane was blocked for 1 h in 5% nonfat dried milk in PBS/Tween 20 (0.1%) and probed with primary antibody overnight at 4° C. […]

BMM = experiment: Confocal quantification of cells positive for LC3 and IL-1α puncta; type: cell-based, murine; conditions: Atg5+ BMM, LPS+IFN-γ, 90 min EBSS
Description: (A,B) IL-1α (ELISA) released from LPS+IFN-γ stimulated Atg5^fl/fl LysM-Cre+ and Atg5^fl/fl LysM-Cre− BMM in the presence of 50 μg/ml rapamycin (Rap), 10 mM 3-MA, or 100 nM Bafilomycin A1 (Baf A1) after 12 h of stimulation. (C) IL-1α (ELISA) in culture supernatants of cells as in A, treated with calpain inhibitor, ALLN (100 μM). (D-F) Images and quantification of cells positive for LC3-only, IL-1α-only or LC3+IL-1α. Cells, wild type (Atg5+) BMM stimulated with LPS+IFN-γ and incubated for 90 min in EBSS in the absence (D, control) or presence (E, Baf A1) of bafilomycin A1. Cutoff for cells to be considered positive: >6 red or green puncta. Red arrowheads, IL-1α+ LC3− cells; green arrowheads, IL-1α− LC3+ cells; 10 μm.
For confocal microscopy, BMM were stained with mouse anti-GFP (Abeam, 10 μg/ml) to enhance LC3-GFP visualization, rabbit anti-caspase 1 (Santa Cruz Biotechnology), rabbit anti-calpain 1 (Cell Signaling Technology), or hamster anti-IL-1α (eBioscience) followed by secondary antibodies. Pearson's colocalization coefficients were derived using SLIDEBOOK 5.0 (Intelligent Imaging Innovations) applying the SLIDEBOOK 5 default algorithm command ‘AND’. All Pearson's coefficients were derived from three independent experiments with five fields or more per experiment, for a total of 15 fields contributing to the cumulative result.

Compound: CO/C1=C\C(C)=C\[C@@H](C)[C@@H](O)[C@@H](C)C/C(C)=C/C=C/[C@H](OC)[C@@H]([C@@H](C)[C@@H](O)[C@H](C)[C@@]2(O)C[C@@H](O)[C@H](C)[C@@H](C(C)C)O2)OC1=O [bafilomycin A1]
- levels of caspase 1 p20 (caspase 1 p20): abnormally higher levels
- number of cells positive for both IL-1α and LC3 (BMM): increased
